Legend:
BCL-XL = BCL-XL (Homo sapiens, UniProt Q07817); details: cited from earlier work
BCL-2 = BCL-2 (Homo sapiens, UniProt P10415); details: cited from earlier work
BCL-w = biological target: T1, BCL-w (Homo sapiens, UniProt Q92843); details: cited from earlier work
T1 sequence (Q92843 1-193): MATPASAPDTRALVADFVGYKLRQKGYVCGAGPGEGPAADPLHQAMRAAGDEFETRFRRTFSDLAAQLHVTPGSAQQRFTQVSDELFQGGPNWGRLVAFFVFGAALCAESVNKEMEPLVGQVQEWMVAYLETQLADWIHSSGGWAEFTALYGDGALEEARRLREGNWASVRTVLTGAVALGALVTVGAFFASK

MWCL-1 cells [1] = experiment: IL-6-mediated IgM secretion in MWCL-1 cells (ELISA); format: cell-based; details: exogenous IL-6 (FIG. 1F)
Source text: (§1) The IgM levels were quantitated using a human IgM Enzyme-linked immunosorbent assay (ELISA) kit (Abcam, #ab214568) according to the manufacturer's instructions. IL-6 levels were quantitated using an IL-6 ELISA MAX™ kit (BioLegend, #430515) per manufacturer's recommendations. For all ELISA kits, plates were developed with 3,3′,5,5′-tetramethylbenzidine (TMB) development solution or a biotinylated antihuman IL-6 detection antibody/avidin horseradish peroxidase (HRP) solution. The reaction was stopped with the stop solution, and absorbance was read at 450 nm with a microplate reader (Synergy™ HT, BioTek Instruments).

MWCL-1 cells [2] = experiment: Apoptosis of MWCL-1 cells in monoculture (Annexin V flow cytometry); format: cell-based
Description: BMSCs were cultured in 96-, 48-, or 24-well plates until 90% confluence. […] Cells were coincubated for 48 or 72 hours followed by measurement of cell viability, apoptosis, IgM, and IL-6 release.
(§2) Cells were washed with PBS, resuspended in Annexin V binding buffer (BioLegend, #422201), and stained with Alexa Fluor® 647 Annexin V (BioLegend, #640943), propidium iodide (BD Pharmingen, #51-66211E), and CD45 antibody (BioLegend, #368502) for 15 minutes at room temperature and analyzed by flow cytometry.

MWCL-1 cells [3] = experiment: Sensitivity of MWCL-1 cells in coculture with HS-5 BMSCs (apoptosis, IgM); format: cell-based; details: HS-5 BMSC coculture vs monoculture (FIG. 10A-D)
Description: (§3) BMSCs were cultured in 96-, 48-, or 24-well plates until 90% confluence. MWCL-1 cells (density≈2×10^5 cells/mL) were pretreated with indicated concentration of mavorixafor together with indicated concentrations of B-cell-targeted inhibitors in medium containing 4% FBS for 1 hour and transferred to the BMSC monolayer. Cells were coincubated for 48 or 72 hours followed by measurement of cell viability, apoptosis, IgM, and IL-6 release.
as §1, §2

MWCL-1 cells [4] = experiment: Apoptosis of MWCL-1 cells in coculture with HS-27A BMSCs; format: cell-based; details: with BMSC (HS-27a) (FIG. 13A)
Description: as §3, §2

[5] = test system: CXCR4 cell surface expression in MWCL-1 cells; experiment: CXCR4 cell surface expression in MWCL-1 cells (flow cytometry); format: cell-based; details: MWCL-1 cocultured with HS-27A BMSCs (FIG. 2B)
Description: Flow experiments were performed with the CytoFLEX S Flow Cytometer (Beckman Coulter). Samples were analyzed using FCS Express Software (De Novo Software).
[…] Cells were stained with CXCR4 antibody (BD Pharmigen, #555976) and measured by flow cytometry.

WM mouse xenograft = details: cited from earlier work
human WM cells = details: mouse, in vivo; cited from earlier work

Sequence of BCL-2 (P10415 whole entry): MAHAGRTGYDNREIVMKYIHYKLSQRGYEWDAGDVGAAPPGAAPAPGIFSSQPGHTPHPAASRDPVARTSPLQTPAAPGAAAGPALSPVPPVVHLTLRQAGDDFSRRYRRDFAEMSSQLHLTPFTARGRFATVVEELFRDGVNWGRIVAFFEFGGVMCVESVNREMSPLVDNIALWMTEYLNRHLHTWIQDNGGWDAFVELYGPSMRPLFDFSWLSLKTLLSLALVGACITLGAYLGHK
Sequence of BCL-XL (Q07817 whole entry): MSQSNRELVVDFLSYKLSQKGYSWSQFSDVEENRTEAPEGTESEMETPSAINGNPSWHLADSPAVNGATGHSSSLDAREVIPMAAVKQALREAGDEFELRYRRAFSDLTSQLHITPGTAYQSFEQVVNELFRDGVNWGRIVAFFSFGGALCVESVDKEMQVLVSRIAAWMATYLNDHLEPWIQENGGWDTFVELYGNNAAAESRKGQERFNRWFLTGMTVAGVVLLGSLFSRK

CN(C)CC[C@H](CSc1ccccc1)Nc1ccc(S(=O)(=O)NC(=O)c2ccc(N3CCN(Cc4ccccc4-c4ccc(Cl)cc4)CC3)cc2)cc1[N+](=O)[O-] [ABT-737]
binding affinity to BCL-XL (BCL-XL): < 1 nmol/L
binding affinity to BCL-2 (BCL-2): < 1 nmol/L
binding affinity to BCL-w (BCL-w): < 1 nmol/L

CN(CC(=O)N(Cc1ccc(C2CCCCC2)cc1)c1ccc(C(=O)O)c(O)c1)S(=O)(=O)c1c(F)c(F)c(F)c(F)c1F [BP-1-102]
IL-6-mediated IgM secretion (MWCL-1 cells [1]): inhibited

C=CC(=O)N1CCC[C@@H](n2nc(-c3ccc(Oc4ccccc4)cc3)c3c(N)ncnc32)C1 [Ibrutinib, 1-[(3R)-3-[4-amino-3-(4-phenoxyphenyl)-1Hpyrazolo[3,4-d]pyrimidin-1-yl]-1-piperidinyl]-2-propen-1-one, reference compound]
% apoptotic cells (MWCL-1 cells [2]; absence of BMSC (FIG. 13A)): approximately 60%
sensitivity of MWCL-1 cells to the drug in HS-5 BMSC coculture (MWCL-1 cells [3]): reduced the sensitivity
% apoptotic cells (MWCL-1 cells [4]): neither Ibrutinib nor Tocilizumab as a single therapy increased

CC(C)C[C@H](NC(=O)CNC(=O)c1cc(Cl)ccc1Cl)B(O)O [Ixazomib, reference compound]
killing / apoptosis of MWCL-1 tumor cells (MWCL-1 cells [2]; absence of bone marrow stroma, 72 hours (FIG. 15)): Kills

CCc1cc(O)c(F)cc1-c1ccc2c(-c3nc4c([nH]3)CCN(C(=O)c3cnc(N5CCCCC5)cn3)C4)n[nH]c2c1 [PF-06263276]
IL-6-mediated IgM secretion (MWCL-1 cells [1]): inhibited

Tocilizumab: IL-6R antibody tocilizumab (Actemra, Genentech)
IL-6-mediated IgM secretion (MWCL-1 cells [1]): inhibited
increase of CXCR4 surface expression by HS-27A BMSC coculture [5]: inhibited
IgM secretion (WM mouse xenograft): reduces
tumor growth (WM mouse xenograft): reduces
% apoptotic cells (MWCL-1 cells [4]): neither Ibrutinib nor Tocilizumab as a single therapy increased

ulocuplumab: monoclonal anti-CXCR4 antibody
tumor infiltration in BM, spleen, and lymph nodes (human WM cells): reduced

Source: patent US20250361307A1, “COMBINATION THERAPIES FOR TREATING HYPERPROLIFERATIVE DISORDERS” (X4 Pharmaceuticals, Inc., priority 2022, published 2025)
